This note sets out measurements from ChEMBL document CHEMBL1134266, “Design and pharmacology of quinuclidine derivatives as M2-selective muscarinic receptor ligands” (Bioorg Med Chem Lett, 2001).

What all share (assay type): cell-based
In experiment [1] the target is T1, Muscarinic acetylcholine receptor M1 (Homo sapiens, UniProt P11229).
T1 sequence (P11229 whole entry): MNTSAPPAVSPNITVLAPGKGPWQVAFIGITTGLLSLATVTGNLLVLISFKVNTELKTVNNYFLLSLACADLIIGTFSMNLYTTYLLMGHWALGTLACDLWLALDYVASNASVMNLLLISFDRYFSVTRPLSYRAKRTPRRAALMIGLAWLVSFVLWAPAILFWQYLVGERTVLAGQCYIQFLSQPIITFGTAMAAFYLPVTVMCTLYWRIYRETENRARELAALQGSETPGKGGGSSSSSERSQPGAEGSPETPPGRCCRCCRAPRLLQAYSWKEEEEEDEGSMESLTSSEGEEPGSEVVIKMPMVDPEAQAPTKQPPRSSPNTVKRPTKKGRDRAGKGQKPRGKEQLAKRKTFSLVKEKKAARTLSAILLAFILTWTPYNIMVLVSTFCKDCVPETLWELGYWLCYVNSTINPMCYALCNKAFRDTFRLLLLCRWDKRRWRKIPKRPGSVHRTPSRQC
Put plainly: Affinity for Muscarinic acetylcholine receptor M1 expressed in CHO cells by [3H]NMS displacement.

For experiment [2], the target named is T2, Muscarinic acetylcholine receptor M4 (Homo sapiens, UniProt P08173).
T2 sequence (P08173 whole entry): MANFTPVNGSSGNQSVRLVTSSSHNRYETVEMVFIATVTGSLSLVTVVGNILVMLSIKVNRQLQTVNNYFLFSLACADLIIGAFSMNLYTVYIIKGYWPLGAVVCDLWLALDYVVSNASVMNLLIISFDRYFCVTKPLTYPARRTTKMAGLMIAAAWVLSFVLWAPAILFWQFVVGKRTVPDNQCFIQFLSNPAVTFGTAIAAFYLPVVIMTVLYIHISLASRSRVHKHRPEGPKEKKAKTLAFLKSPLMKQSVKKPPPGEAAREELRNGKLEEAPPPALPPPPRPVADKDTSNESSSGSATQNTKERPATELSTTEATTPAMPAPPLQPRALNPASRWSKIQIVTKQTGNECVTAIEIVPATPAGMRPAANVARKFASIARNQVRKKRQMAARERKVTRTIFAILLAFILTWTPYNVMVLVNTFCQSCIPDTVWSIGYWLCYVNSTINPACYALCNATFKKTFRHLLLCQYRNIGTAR
Briefly: Affinity for Muscarinic acetylcholine receptor M4 expressed in CHO cells by [3H]NMS displacement.

Experiment [3] has as its target T3, Muscarinic acetylcholine receptor M5 (Homo sapiens, UniProt P08912).
T3 sequence (P08912 whole entry): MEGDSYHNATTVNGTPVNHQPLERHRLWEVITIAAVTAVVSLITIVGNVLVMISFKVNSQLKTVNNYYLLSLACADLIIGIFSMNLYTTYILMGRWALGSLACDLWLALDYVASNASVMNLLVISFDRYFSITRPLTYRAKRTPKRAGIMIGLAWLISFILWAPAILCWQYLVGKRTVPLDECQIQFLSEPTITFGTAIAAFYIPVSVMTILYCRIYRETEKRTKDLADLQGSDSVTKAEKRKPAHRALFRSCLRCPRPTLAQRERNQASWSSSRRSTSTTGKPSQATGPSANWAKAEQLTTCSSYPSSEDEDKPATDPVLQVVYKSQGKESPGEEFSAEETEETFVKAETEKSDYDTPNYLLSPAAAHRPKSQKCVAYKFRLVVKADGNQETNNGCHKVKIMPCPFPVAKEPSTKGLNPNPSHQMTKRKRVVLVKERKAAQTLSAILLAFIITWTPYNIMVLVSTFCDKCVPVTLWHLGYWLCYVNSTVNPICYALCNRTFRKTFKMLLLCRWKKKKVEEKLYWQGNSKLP
Put plainly: Affinity for Muscarinic acetylcholine receptor M5 expressed in CHO cells by [3H]NMS displacement.

The target in experiment [4] is Muscarinic acetylcholine receptor M3 (Homo sapiens, UniProt P20309). Put plainly: Affinity for Muscarinic acetylcholine receptor M3 expressed in CHO cells by [3H]-NMS displacement.
Muscarinic acetylcholine receptor M3, sequence (P20309 whole entry): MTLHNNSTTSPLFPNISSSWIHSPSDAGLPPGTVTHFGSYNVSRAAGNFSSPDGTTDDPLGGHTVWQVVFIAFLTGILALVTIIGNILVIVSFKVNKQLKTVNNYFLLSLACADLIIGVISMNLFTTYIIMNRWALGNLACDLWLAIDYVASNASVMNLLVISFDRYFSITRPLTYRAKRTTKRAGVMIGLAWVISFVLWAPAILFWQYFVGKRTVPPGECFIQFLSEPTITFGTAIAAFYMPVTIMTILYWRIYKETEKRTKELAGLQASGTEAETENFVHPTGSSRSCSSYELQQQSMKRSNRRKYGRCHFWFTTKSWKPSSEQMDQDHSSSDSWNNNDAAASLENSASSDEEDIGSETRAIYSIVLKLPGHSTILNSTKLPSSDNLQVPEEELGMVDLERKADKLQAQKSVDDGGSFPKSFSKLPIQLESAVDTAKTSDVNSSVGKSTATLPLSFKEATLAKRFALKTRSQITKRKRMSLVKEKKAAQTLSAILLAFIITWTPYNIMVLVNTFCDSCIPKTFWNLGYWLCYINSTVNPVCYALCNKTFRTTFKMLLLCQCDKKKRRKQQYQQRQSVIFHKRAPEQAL
Experiment [5] addresses T4, Muscarinic acetylcholine receptor M2 (Homo sapiens, UniProt P08172).
T4 sequence (P08172 whole entry): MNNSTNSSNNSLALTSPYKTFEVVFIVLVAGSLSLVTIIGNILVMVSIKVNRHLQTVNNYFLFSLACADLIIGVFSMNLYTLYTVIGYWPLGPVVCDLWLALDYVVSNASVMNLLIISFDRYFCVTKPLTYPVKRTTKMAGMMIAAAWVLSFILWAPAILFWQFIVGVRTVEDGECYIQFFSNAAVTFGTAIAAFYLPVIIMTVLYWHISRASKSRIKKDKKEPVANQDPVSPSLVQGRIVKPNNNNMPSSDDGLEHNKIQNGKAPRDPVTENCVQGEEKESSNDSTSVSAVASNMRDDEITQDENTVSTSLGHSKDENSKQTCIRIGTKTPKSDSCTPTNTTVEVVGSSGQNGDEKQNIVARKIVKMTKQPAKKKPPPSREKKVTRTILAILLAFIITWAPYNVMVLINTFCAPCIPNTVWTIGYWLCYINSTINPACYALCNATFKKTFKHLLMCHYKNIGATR
Briefly: Affinity for Muscarinic acetylcholine receptor M2 expressed in CHO cells by [3H]NMS displacement.

SMILES strings stand for the structures.

For orientation: Ki means the dissociation constant of the complex between target and ligand, obtained from inhibition or displacement. A high value points to a looser hold on the target.

As for `CN(C)CCNC(=O)C1=C/C(=C\c2cccnc2)c2ccccc21`, the Ki was 28.2 µM in experiment [1]; 21.4 µM in experiment [2]; 66.1 µM in experiment [3]; 40.7 µM in experiment [4]; 29.5 µM in experiment [5].

`CN(C)CCNC(=O)C1=C/C(=C\c2ccccn2)c2ccccc21`: the Ki in experiment [1] was 26.9 µM; in experiment [2], 33.9 µM; in experiment [3], 55 µM; in experiment [4], 61.7 µM; in experiment [5], 41.7 µM.

Turning to `CN(C)CCOC(=O)C1=C/C(=C\c2ccccn2)c2ccccc21`, the Ki in experiment [1] is 7.08 µM; in experiment [2], 12.3 µM; in experiment [3], 17.8 µM; in experiment [4], 14.1 µM; in experiment [5], 12 µM.

For the compound `CN(C)CCC1=C/C(=C\c2cccnc2)c2ccccc21`, the inhibition constant Ki in experiment [1] was 18.6 µM; in experiment [2], 22.4 µM; in experiment [3], 26.9 µM; in experiment [4], 27.5 µM; in experiment [5], 15.1 µM.

As for `CC(C1=C(CCN(C)C)Cc2ccccc21)c1ccccn1` (stereo not drawn), the Ki is 0.263 µM in experiment [1]; 0.407 µM in experiment [2]; 0.794 µM in experiment [3]; 0.191 µM in experiment [4]; 0.0447 µM in experiment [5].

Turning to `CN(C)CCOC(=O)C1=C/C(=C\c2cccnc2)c2ccccc21`, the Ki was 11.5 µM in experiment [1]; 12.6 µM in experiment [2]; 30.2 µM in experiment [3]; 10 µM in experiment [4]; 7.41 µM in experiment [5].

Regarding `CN1CCN(C(=O)C2=C/C(=C\c3ccncc3)c3ccccc32)CC1`, the Ki in experiment [1] is 29.5 µM; in experiment [2] it was 89.1 µM; in experiment [3], 55 µM; in experiment [4] it was 97.7 µM; in experiment [5], 38.9 µM.

As to `CN(C)CCNC(=O)C1=C/C(=C\c2ccncc2)c2ccccc21`, the Ki in experiment [1] was 24 µM; in experiment [2], 24.5 µM; in experiment [3] it was 53.7 µM; in experiment [4], 45.7 µM; in experiment [5], 15.8 µM.

In the case of `CC1OC(=O)[C@H]2C[C@H]3CCCC[C@@H]3[C@@H](/C=C/C3CCCC(C)N3C)[C@@H]12` (single isomer, unassigned) [HIMBACINE], the Ki in experiment [1] was 0.107 µM; in experiment [3], 0.49 µM; in experiment [5], 0.01 µM.

As to `CN(C)CCC1=C/C(=C\c2ccccn2)c2ccccc21`, the Ki in experiment [1] is 9.55 µM; in experiment [2], 12 µM; in experiment [3], 19.1 µM; in experiment [4], 21.4 µM; in experiment [5], 12.6 µM.

Regarding `CN(C)CCN(C)C(=O)C1=C/C(=C\c2ccccn2)c2ccccc21`, the Ki in experiment [1] was 21.9 µM; in experiment [2], 46.8 µM; in experiment [3], 52.5 µM; in experiment [4], 63.1 µM; in experiment [5] it was 9.12 µM.

On to `CN(C)CCN(C)C(=O)C1=C/C(=C\c2cccnc2)c2ccccc21`, for which the Ki in experiment [1] was 49 µM; in experiment [2], 55 µM; in experiment [3], 53.7 µM; in experiment [4], 72.4 µM; in experiment [5] it was 14.1 µM.

For `CN(C)CCOC(=O)C1=C/C(=C\c2ccncc2)c2ccccc21`, the Ki is 12 µM in experiment [1]; 14.8 µM in experiment [2]; 26.9 µM in experiment [3]; 15.1 µM in experiment [4]; 10.5 µM in experiment [5].
